Results taken from patent publication US11542240B2, “STK19 inhibitors for treatment of cancer” (TRUSTEES OF BOSTON UNIVERSITY, priority 2018, dated 2023).
Read-outs that look alike come from different tables or passages of the source.

Key:
[1] = biological target: T1, STK19 (Homo sapiens (Human), UniProt P49842); test: STK19 kinase inhibitory activity, ADP-Glo kinase assay with NRAS substrate; type: biochemical
[2] = test system: hTERT/p53DD/CDK4(R24C) melanocytes; test: colony formation assay of NRASQ61R-expressing immortal melanocytes; type: cell-based, human; settings: 3 μM IV
[3] = test system: A375 cells; test: cell proliferation rate, 4 days; type: cell-based, human; settings: A375, 4 days
Excerpt: (§1) In addition, the inventors investigated the growth inhibitory effects of IV in melanoma cells with different NRAS and BRAF status, including A375 and UACC62 (NRASWT, BRAFV600E), and SK-MEL-2 and WM2032 (NRASQ61R, BRAFWT).

[4] = test system: SK-MEL-2 cells; test: cell proliferation rate, 4 days; type: cell-based, human; settings: SK-MEL-2, 4 days
Excerpt: as §1

[5] = test system: UACC62 cells; test: cell proliferation rate, 4 days; type: cell-based, human; settings: UACC62, 4 days
Excerpt: as §1

[6] = test system: WM2032 cells; test: cell proliferation rate, 4 days; type: cell-based, human; settings: WM2032, 4 days
Excerpt: as §1

[7] = test system: WM2032 cells; test: caspase activity assay (apoptosis), 4 days; type: cell-based, human; settings: WM2032, 4 days
Excerpt: as §1

[8] = test system: UACC62 cells; test: caspase activity assay (apoptosis), 4 days; type: cell-based, human; settings: UACC62, 4 days
[9] = test system: SK-MEL-2 cells; type: cell-based, human
Excerpt: as §1
(§2) To further confirm the pharmacological effects of IV derive from STK19 inhibition and not G9a inhibition, the inventors investigated the role of G9a in NRAS signaling activation. G9a was silenced by G9a-specific shRNA or inhibited by a specific inhibitor, A-366, in SK-MEL-2 and WM2032 melanoma cells. […] In summary, ZT-12-037-01 (IV) is a specific STK19-targeted inhibitor to block oncogenic NRAS-driven melanocyte malignant transformation and melanoma growth.

[10] = test system: WM2032 cells; type: cell-based, human
Excerpt: as §1, §2

[11] = test system: UACC62 cells; test: immunoblots of NRAS phosphorylation and NRAS signaling; type: cell-based, human; settings: UACC62 (NRASWT, BRAFV600E)
[12] = biological target: STK19D89N (Homo sapiens (Human), UniProt P49842, D89N); test: STK19 kinase assay, D89N mutant; settings: read-out: IC50 for STK19D89N
Chain of STK19D89N (P49842 other isoform, or with tags, fused parts or gaps D89N): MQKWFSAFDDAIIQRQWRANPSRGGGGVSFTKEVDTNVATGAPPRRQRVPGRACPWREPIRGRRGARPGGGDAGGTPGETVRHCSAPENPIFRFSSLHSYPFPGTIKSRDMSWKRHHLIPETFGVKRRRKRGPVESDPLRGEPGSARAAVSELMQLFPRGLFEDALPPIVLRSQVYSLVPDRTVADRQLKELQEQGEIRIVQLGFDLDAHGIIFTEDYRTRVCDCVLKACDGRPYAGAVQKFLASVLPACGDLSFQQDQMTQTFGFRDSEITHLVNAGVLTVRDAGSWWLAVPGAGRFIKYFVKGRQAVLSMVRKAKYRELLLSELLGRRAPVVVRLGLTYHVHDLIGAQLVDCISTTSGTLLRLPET

[13] = biological target: T1, STK19; test: thermal denaturation curve shift of STK19; settings: read-out: shift in the melting temperature of STK19
[14] = tolerability study in C57BL/6J mice (body weight, blood chemistry, H&E histology)
[15] = blood chemistry in tolerability studies

T1 sequence (P49842 other isoform, or with tags, fused parts or gaps): as the sequence (P49842 other isoform, or with tags, fused parts or gaps D89N) above, with N89D counted along it

COc1cc2nc(NC3CC3)nc(NC3CCN(C(C)C)CC3)c2cc1OC [Formula IV]
inhibition at 10 µM [1]: 84%
IC50 ([1]; STK19WT, read-out: IC50 for STK19WT): 0.024 µM
IC50 ([1]; STK19 kinase, read-out: IC50 (nm)): 0.024 µM
mode of inhibition (IC50 against STK19 at increasing ATP concentrations) ([1]; different ATP concentrations): ATP-competitive inhibitor
IC50 ([1]; measured as percentage of NRAS phosphorylation, read-out: IC50, inhibitory activity against STK19): 0.024 µM
mutant NRAS/STK19-driven melanocyte colony formation [2]: significantly inhibited
cell growth [3]: reduced impact
cell growth [4]: effectively inhibited
cell growth [5]: reduced impact
cell growth [6]: effectively inhibited
apoptosis [7]: induced apoptosis
apoptosis [8]: reduced impact
NRAS signaling, including MEK-ERK and PI3K pathways ([9]; SK-MEL-2 (NRASQ61R)): effectively inhibited
NRAS phosphorylation and activity ([9]; SK-MEL-2, IV 100 nM and 300 nM): effectively decreased
H3K9 methylation ([9]; SK-MEL-2, IV up to 300 nM): no obvious effects
IV-mediated inhibition of oncogenic NRAS signaling after introduction of IV-resistant STK19 V134Y or L139F ([9]; SK-MEL-2 cells): rescued
NRAS signaling, including MEK-ERK and PI3K pathways ([10]; WM2032 (NRASQ61R)): effectively inhibited
NRAS phosphorylation and activity ([10]; WM2032, IV 100 nM and 300 nM): effectively decreased
H3K9 methylation ([10]; WM2032, IV up to 300 nM): no obvious effects
NRAS signaling, including MEK-ERK and PI3K pathways [11]: much less effective
IC50 [12]: 0.0279 µM
ΔTm at 100 µM [13]: 6.8 °C
serum transaminase levels ([14]; C57BL/6J mice): did not affect
mouse weight ([14]; C57BL/6J mice, 25 mg/kg BID for 15 days): did not affect
histology of mouse tissues ([14]; C57BL/6J mice, 25 mg/kg BID for 15 days, H&E): did not affect
Alanine aminotransferase (ALT) [14, 15]: 27.6 ± 5.6 U/L
Albumin (ALB) [14, 15]: 28.3 ± 2.7 g/L
Alkaline phosphatase (ALP) [14, 15]: 3.9 ± 1.7 U/L
Aspartate aminotransferase (AST) [14, 15]: 54.4 ± 9.4 U/L
Creatinine (CRE) [14, 15]: 17.7 ± 4.2 µmol/L
Lactic dehydrogenase (LDH) [14, 15]: 247.3 ± 41.0 U/L
Phosphorus (P) [14, 15]: 1.67 ± 0.39
Total bilirubin (T-Bil) [14, 15]: 2.68 ± 0.44 µmol/L
Total protein (TP) [14, 15]: 50.9 ± 2.5 g/L
